In patent publication US11214803B2, “Modulators of YAP1 expression” (Ionis Pharmaceuticals, Inc., priority 2019, dated 2022):
Strand notation (5' to 3'): a small letter for the sugar, then the base; units joined by * are phosphorothioate-linked, units joined directly phosphodiester-linked; [ ] holds rarer units or linkages, { } end groups; capitals alone tell only the bases. e = 2'-O-(2-methoxyethyl) (MOE); k = constrained ethyl (cEt); [5mC] = 5-methylcytosine; d = 2'-deoxy (DNA); m = 2'-O-methyl

System: Yap1 mRNA
Assay: Antisense inhibition of human Yap1 in SNU-449 cells by modified oligonucleotides, single dose (Example 5, RTS36584)
Assay type: cell-based
Conditions: for YAP1 (% UTC): SNU-449 cells, 10,000 cells per well, RTS36584
Outline: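 Each modified oligonucleotide is applied by free uptake to SNU-449 cultures at 2,000 nM, and total RNA is harvested around 48 h later. Yap1 transcript, quantified with the RTS36584 set and corrected for RIBOGREEN RNA content, is given as % UTC. Asterisks mark sequences overlapping the amplicon.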

[1] = Table 48, Yap1 mRNA level relative to untreated control, modified oligonucleotides targeting SEQ ID NO.: 1 and 2
[2] = Table 52, Yap1 mRNA, modified oligonucleotides targeting SEQ ID NO: 1 and 2
[3] = Table 44 experiment, free uptake, 2,000 nM, approximately 48 hours, Yap1 mRNA normalized to RIBOGREEN, relative to untreated control cells
[4] = Table 50, Yap1 mRNA remaining as percent of untreated control (UT), SNU-449 cells, single dose
[5] = Yap1 mRNA, percent of untreated control, modified oligonucleotides targeting SEQ ID NO: 1 and 2, Table 47
[6] = Table 51, Yap1 mRNA remaining as percent of untreated control (UT), SNU-449 cells, single dose
[7] = Table 40 (separate experiment), free uptake, 2,000 nM oligonucleotide, approx. 48 hours, normalized to RIBOGREEN, Yap1 mRNA relative to untreated control

1197214 (antisense kA*kG*kT*dG*dT*dA*dT*dG*dT*d[5mC]*dA*dG*dA*kA*kG*kA) [Compound 1197214]
YAP1 (% UT) [1]: 5 % UT

1200863 (k[5mC]*kT*kT*dT*dA*mA*dA*dG*dT*dG*dT*dA*dT*kG*kT*k[5mC]; antisense) [Compound 1200863]
YAP1 (% UT) [2]: 41 % UT

1198489 (antisense kT*kT*dG*dG*dA*dA*dG*dA*dT*d[5mC]*dT*eG*kA*eA*kA*e[5mC]) [Compound 1198489]
YAP1 (% UTC) [3]: 50 % UTC

1198540 (antisense kA*kG*dA*d[5mC]*dT*dA*dA*dG*dT*dA*dA*eG*kG*eT*kT*eT) [Compound 1198540]
YAP1 (% UTC) [3]: 51 % UTC

1198622 (kT*kA*kA*dG*dT*dA*dA*dG*dG*dT*dT*dT*k[5mC]*k[5mC]*k[5mC]*eA; antisense) [Compound 1198622]
YAP1 (% UT) [4]: 26 % UT

1197182 (antisense kT*kT*kT*dT*dA*d[5mC]*dA*dT*dT*dA*dG*dG*dA*kA*k[5mC]*kA) [Compound 1197182]
YAP1 (% UT) [5]: 115 % UT

1198312 (kG*k[5mC]*kA*d[5mC]*dT*dT*dT*dT*dA*d[5mC]*dA*dT*kT*eA*kG*eG; antisense) [Compound 1198312]
YAP1 (% UT) [1]: 7 % UT

1197302 (k[5mC]*kA*kG*dA*mU*dT*dT*dA*dG*dG*dA*dT*dG*k[5mC]*kA*kT; antisense) [Compound 1197302]
YAP1 (% UT) [6]: 54 % UT

1198505 (kA*kT*dT*d[5mC]*dA*dG*dA*dT*dT*dT*dA*eG*kG*eA*kT*eG; antisense) [Compound 1198505]
YAP1 (% UTC) [3]: 73 % UTC

1198605 (antisense kG*kT*kA*dA*dT*dA*dT*dT*dG*d[5mC]*dA*dA*kT*k[5mC]*kT*eG) [Compound 1198605]
YAP1 (% UT) [4]: 7 % UT

1198304 (kA*kG*kG*dT*dA*dT*dA*dA*d[5mC]*dT*dG*dG*kG*e[5mC]*kA*eA; antisense) [Compound 1198304]
YAP1 (% UT) (Table 49, Yap1 mRNA level relative to untreated control, modified oligonucleotides targeting SEQ ID NO.: 1 and 2): 33 % UT

1197183 (antisense kA*k[5mC]*kT*dT*dT*dT*dA*d[5mC]*dA*dT*dT*dA*dG*kG*kA*kA) [Compound 1197183]
YAP1 (% UT) [5]: 41 % UT

1198636 (kA*kT*dA*dT*dG*dG*dA*dA*dA*dT*dT*dG*kT*e[5mC]*kT*e[5mC]; antisense) [Compound 1198636]
YAP1 (% UTC) (Table 41, free uptake, 2,000 nM modified oligonucleotide, approximately 48 hours, normalized to RIBOGREEN, Yap1 mRNA relative to untreated control cells): 41 % UTC

1198471 (antisense kA*kT*dA*dT*dT*dA*dG*dA*dG*dT*dA*eT*kG*eT*kG*eG) [Compound 1198471]
YAP1 (% UTC) (Table 43 experiment, free uptake, 2,000 nM, approximately 48 hours, Yap1 mRNA normalized to RIBOGREEN, relative to untreated control cells): 21 % UTC

1197245 (antisense kT*kT*kT*dT*mA*d[5mC]*dA*dT*dT*dA*dG*dG*dA*kA*k[5mC]*kA) [Compound 1197245]
YAP1 (% UT) [4]: 60 % UT

1197298 (kA*kT*kA*dG*mU*dG*d[5mC]*dT*dT*dT*dG*dG*dA*kA*kG*kA) [Compound 1197298]
YAP1 (% UT) [6]: 46 % UT

1198798 (antisense kT*eA*kA*dG*dT*dA*dA*dG*dG*dT*dT*dT*e[5mC]*e[5mC]*k[5mC]*kA) [Compound 1198798]
YAP1 (% UTC) [7]: 38 % UTC

1197266 (kT*kG*kT*dA*mA*dT*dA*dT*dT*dG*d[5mC]*dA*dA*kT*k[5mC]*kT) [Compound 1197266]
YAP1 (% UT) [6]: 31 % UT

1198802 (antisense kA*eG*kA*d[5mC]*dT*dA*dA*dG*dT*dA*dA*dG*eG*eT*kT*kT) [Compound 1198802]
YAP1 (% UTC) [7]: 83 % UTC

1200858 (kA*kA*kG*dT*dG*mU*dA*dT*dG*dT*d[5mC]*dA*dG*kA*kA*kG; antisense) [Compound 1200858]
YAP1 (% UT) [2]: 10 % UT

1200835 (k[5mC]*kA*kG*dA*dT*mU*dT*dA*dG*dG*dA*dT*dG*k[5mC]*kA*kT; antisense) [Compound 1200835]
YAP1 (% UT) [2]: 82 % UT

1197197 (antisense kT*k[5mC]*kA*dG*dA*dT*dT*dT*dA*dG*dG*dA*dT*kG*k[5mC]*kA) [Compound 1197197]
YAP1 (% UT) [5]: 20 % UT

1198591 (antisense kA*kT*kT*d[5mC]*dA*dG*dA*dT*dT*dT*dA*dG*kG*kA*kT*eG) [Compound 1198591]
YAP1 (% UT) [4]: 106 % UT

1198819 (kA*kT*dA*dT*dT*dA*dG*dA*dG*dT*dA*kT*eG*kT*eG*kG; antisense) [Compound 1198819]
YAP1 (% UT) (Table 46, Yap1 mRNA as percent of untreated control, SNU-449 cells, single dose): 44 % UT

1198725 (kT*eA*kG*dA*dG*dT*dA*dT*dG*dT*dG*dG*e[5mC]*eA*kA*kT; antisense) [Compound 1198725]
YAP1 (% UTC) [7]: 23 % UTC
